Data on four compounds can be found in patent US10576101B2, “Roneparstat combined therapy of multiple myeloma” (Leadiant Biosciences SA, priority 2015, dated 2020).

Where two headings read alike, the source gives them in different places.

The subject of data set [1] is CAG HPSE high cells. In kind it is in vivo, Mouse, CB. 17/Icr SCID.
The next data set relates to HPSE-high cells. Put plainly: Cell viability by MTT assay, roneparstat with carfilzomib. In kind it is cell-based, human. The settings on record: roneparstat 6.75 μM or carfilzomib 15 nM alone. An excerpt:
CAG human myeloma cell line was established at the Myeloma Institute for Research and Therapy (Little Rock, Ark.). CAG cells with modified levels of heparanase expression have been extensively characterized and include (a) heparanase-low (HPSE-low) cells prepared by transfection with empty vector; and (b) heparanase-high (HPSE-high) cells prepared by transfection with vector containing the cDNA for human heparanase. Although HPSE-high cells express a 4-fold higher level of heparanase than do the HPSE-low cells, the elevated levels of enzyme activity present in HPSE-high cells are in the same range as that present in the bone marrow of many myeloma patients (Kelly T. et al, Cancer Res 2003; 63:8749-56). […] The preparation of the CAG-HPSE high cells is described in Yang Y, et al, The Journal Of Biological Chemistry, Vol. 282, No. 18, pp. 13326-13333, May 4, 2007 (see in particular page 13327, left column, the paragraph beginning with “For transfections . . . ”).
HPSE-high cells were seeded in serum free media overnight and then treated with 6.75 μM roneparstat (Rone) for 6 hours, washed and then treated with carfilzomib (CFZ) (15 nM) for 14 hours and viability was assessed by MTT assay. The MTT assay is a colorimetric assay for assessing cell viability, which takes its name from tetrazolium dye MTT (3-(4,5-dimethylthiazol-2-yl)-2,5-diphenyltetrazolium bromide). […]
In general terms: Tetrazolium assays rely on reduction of a dye to a coloured formazan, in cell work by metabolically active cells.

In data set [2] the test system is CAG HPSE high cells. In kind it is in vivo, Mouse, CB. 17/Icr SCID. The source holds these as a separate data set.
The next data set deals with diabetic nephropathy. The note with it: mouse models of diabetic nephropathy; cited from earlier work.
In data set [3] the test system is CAG HPSE high cells. Description: Experimental metastasis model of myeloma, roneparstat in vivo combination with bortezomib. Details: species or system Mouse, CB. 17/Icr SCID. The settings on record: roneparstat 120 mg/kg/day s.c., bortezomib 0.5 mg/kg/twice a week i.p., two weeks, serum Day 21.
A further data set deals with multiple myeloma. The settings on record: high-dose 200 mg/m^2 followed by ASCT after VAD induction, patients younger than 65 years; cited from earlier work.
Data set [4] has as its system nonclinical tumor models, including multiple myeloma. The note with it: cited from earlier work.
The test system of data set [5] is a variety of cancer cell types. The note with it: cited from earlier work.
The subject of data set [6] is solid and hematologic tumor cells. The settings on record: cited from earlier work.
The next data set relates to proteasome. The note with it: in animals; cited from earlier work.
The test system of data set [7] is models of multiple myeloma, hematologic, and solid tumors. The note with it: cited from earlier work.
[8] abbreviates: roneparstat 60 mg/kg/day s.c., melphalan 1 mg/kg/week i.p., two weeks, serum Day 21.

In the case of Roneparstat, in the data set on CAG HPSE high cells [1] (mouse, in vivo), the “% of animals with kappa levels (above detection limit)” value stood at 89% and the “animals with detectable levels of human immunoglobulin light chain (detectable tumor burden)” value (“animals with detectable levels” below) is recorded as 8/9. Moreover, in the data set with HPSE-high cells, the “decrease of viability (MTT), agent administered alone” value is “neither roneparstat or carfilzomib provided significant results”. Besides, in the data set with CAG HPSE high cells [2] (mouse, in vivo), the “animals with detectable tumor burden” value was 3/10. Besides, the “extent of albuminuria and renal damage” value with diabetic nephropathy was “markedly decreased”. In the data set with CAG HPSE high cells [3], the “% of animals with kappa levels (above detection limit)” value was determined as 70% and the “animals with detectable levels” value is 6/8.

`N[C@@H](Cc1ccc(N(CCCl)CCCl)cc1)C(=O)O` [Melphalan]: in the data set with multiple myeloma, the survival is 5 years. Moreover, in the data set with CAG HPSE high cells [1] (setting [8]), the “% of animals with kappa levels (above detection limit)” value is on record as 70% and the “animals with detectable levels” value is 7/10. Also, the “animals with detectable tumor burden” value in the data set on CAG HPSE high cells [2] (after initial melphalan treatment, PBS for the next two weeks) was 7/11.

With `CC(C)C[C@H](NC(=O)[C@H](Cc1ccccc1)NC(=O)c1cnccn1)B(O)O` [Bortezomib], the “tumor growth in vivo” value in [4] is recorded as “causes a delay in tumor growth”. Moreover, in the data set on CAG HPSE high cells [3], the “% of animals with kappa levels (above detection limit)” value is 75% and the “animals with detectable levels” value is 8/10. Further, the cytotoxicity in vitro entry in data set [5] is “cytotoxic”.

For the compound `CC(C)C[C@H](NC(=O)[C@H](CCc1ccccc1)NC(=O)CN1CCOCC1)C(=O)N[C@@H](Cc1ccccc1)C(=O)N[C@@H](CC(C)C)C(=O)[C@@]1(C)CO1` [Carfilzomib, (2S)—N—((S)-1-((S)-4-methyl-1-((R)-2-methyloxiran2-yl)-1-oxopentan-2-ylcarbamoyl)-2-phenylethyl)-2-((S)-2-(2-morpholinoacetamido)4-phenylbutanamido)-4-methylpentanamide], the “decrease of viability (MTT), agent administered alone” value with HPSE-high cells was “neither roneparstat or carfilzomib provided significant results”. Also, in data set [6], the “antiproliferative and proapoptotic activities in vitro” value is “had antiproliferative and proapoptotic activities”. For the same compound, the “proteasome activity in blood and tissue” value with proteasome is “inhibited proteasome activity”. In data set [7], the tumor growth entry is given as “delayed tumor growth”.
